Measurements: ChEMBL document CHEMBL3045535, “Evaluation of lufenuron as a chemosterilant against fruit flies of the genus Anastrepha (Diptera: Tephritidae)” (2010)
Activity calls are given as the source filed them. The rule behind the calls is not given here.

Columns and labels:
Anastrepha serpentina [1] = assay: Effect on fecundity in 7 days old adult of Anastrepha serpentina at 0.1 to 30 mg/g treated with diet after 24 hr; type: functional, organism-based
Anastrepha ludens [2] = assay: Reduction of fertility in 7 days old adult of Anastrepha ludens assessed as reduction of egg hatching at 1 mg/g treated with diet measured after 5 days oviposition; type: functional; parameters: scale not given: the % may be the effect or the level left
Anastrepha ludens [3] = assay: Reduction of fertility in 7 days old adult of Anastrepha ludens assessed as reduction of egg hatching at 5 mg/g treated with diet measured after 7 days oviposition; type: functional; parameters: scale not given: the % may be the effect or the level left
Anastrepha striata [4] = assay: Reduction of fertility in 7 days old adult of Anastrepha striata assessed as reduction of egg hatching at 10 mg/g treated with diet measured after 1 day oviposition; type: functional; parameters: scale not given: the % may be the effect or the level left
Anastrepha ludens [5] = assay: Reduction of fertility in 7 days old adult of Anastrepha ludens assessed as reduction of egg hatching at 30 mg/g treated with diet measured after 1 day oviposition; type: functional; parameters: scale not given: the % may be the effect or the level left
Anastrepha striata [6] = assay: Reduction of fertility in 7 days old adult of Anastrepha striata assessed as reduction of egg hatching at 0.5 mg/g treated with diet measured after 11 days oviposition; type: functional; parameters: scale not given: the % may be the effect or the level left
Anastrepha striata [7] = assay: Reduction of fertility in 7 days old adult of Anastrepha striata assessed as reduction of egg hatching at 1 mg/g treated with diet measured after 5 days oviposition; type: functional; parameters: scale not given: the % may be the effect or the level left
Anastrepha obliqua [8] = assay: Reduction of fertility in 7 days old adult of Anastrepha obliqua assessed as reduction of egg hatching at 10 mg/g treated with diet measured after 5 days oviposition; type: functional; parameters: scale not given: the % may be the effect or the level left
Anastrepha serpentina [9] = assay: Reduction of fertility in 7 days old adult of Anastrepha serpentina assessed as reduction of egg hatching at 0.5 mg/g treated with diet measured after 1 day oviposition; type: functional; parameters: scale not given: the % may be the effect or the level left
Anastrepha serpentina [10] = assay: Reduction of fertility in 7 days old adult of Anastrepha serpentina assessed as reduction of egg hatching at 0.5 mg/g treated with diet measured after 7 days oviposition; type: functional; parameters: scale not given: the % may be the effect or the level left
Anastrepha serpentina [11] = assay: Reduction of fertility in 7 days old adult of Anastrepha serpentina assessed as reduction of egg hatching at 0.1 mg/g treated with diet measured after 5 days oviposition; type: functional; parameters: scale not given: the % may be the effect or the level left
Anastrepha striata [12] = assay: Reduction of fertility in 7 days old adult of Anastrepha striata assessed as reduction of egg hatching at 0.1 mg/g treated with diet measured after 11 days oviposition; type: functional; parameters: scale not given: the % may be the effect or the level left
Anastrepha serpentina [13] = assay: Reduction of fertility in 7 days old adult of Anastrepha serpentina assessed as reduction of egg hatching at 5 mg/g treated with diet measured after 9 days oviposition; type: functional; parameters: scale not given: the % may be the effect or the level left
Anastrepha ludens [14] = assay: Reduction of fertility in 7 days old adult of Anastrepha ludens assessed as reduction of egg hatching at 0.5 mg/g treated with diet measured after 3 days oviposition; type: functional; parameters: scale not given: the % may be the effect or the level left
Anastrepha ludens [15] = assay: Reduction of fertility in 7 days old adult of Anastrepha ludens assessed as reduction of egg hatching at 1 mg/g treated with diet measured after 7 days oviposition; type: functional; parameters: scale not given: the % may be the effect or the level left
Anastrepha ludens [16] = assay: Reduction of fertility in 7 days old adult of Anastrepha ludens assessed as reduction of egg hatching at 30 mg/g treated with diet measured after 3 days oviposition; type: functional; parameters: scale not given: the % may be the effect or the level left
Anastrepha obliqua [17] = assay: Reduction of fertility in 7 days old adult of Anastrepha obliqua assessed as reduction of egg hatching at 30 mg/g treated with diet measured after 1 day oviposition; type: functional; parameters: scale not given: the % may be the effect or the level left
Anastrepha obliqua [18] = assay: Effect on fertility in 7 days old adult female of Anastrepha obliqua at 30 mg/g treated with diet after 24 hr in presence of untreated adult male of Anastrepha obliqua; type: functional, organism-based
Anastrepha striata [19] = assay: Effect on fertility in 7 days old adult male of Anastrepha striata at 30 mg/g treated with diet after 24 hr in presence of untreated adult female of Anastrepha striata; type: functional, organism-based
Anastrepha ludens [20] = assay: Reduction of fertility in 7 days old adult of Anastrepha ludens assessed as reduction of egg hatching at 0.1 mg/g treated with diet measured after 5 days oviposition; type: functional; parameters: scale not given: the % may be the effect or the level left
Anastrepha obliqua [21] = assay: Reduction of fertility in 7 days old adult of Anastrepha obliqua assessed as reduction of egg hatching at 0.5 mg/g treated with diet measured after 7 days oviposition; type: functional; parameters: scale not given: the % may be the effect or the level left
Anastrepha obliqua [22] = assay: Reduction of fertility in 7 days old adult of Anastrepha obliqua assessed as reduction of egg hatching at 5 mg/g treated with diet measured after 11 days oviposition; type: functional; parameters: scale not given: the % may be the effect or the level left
Anastrepha striata [23] = assay: Reduction of fertility in 7 days old adult of Anastrepha striata assessed as reduction of egg hatching at 5 mg/g treated with diet measured after 5 days oviposition; type: functional; parameters: scale not given: the % may be the effect or the level left
Anastrepha ludens [24] = assay: Reduction of fertility in 7 days old adult of Anastrepha ludens assessed as reduction of egg hatching at 1 mg/g treated with diet measured after 9 days oviposition; type: functional; parameters: scale not given: the % may be the effect or the level left
Anastrepha serpentina [25] = assay: Effect on fertility in 7 days old adult male of Anastrepha serpentina at 30 mg/g treated with diet after 24 hr in presence of untreated adult female of Anastrepha serpentina; type: functional, organism-based
Anastrepha obliqua [26] = assay: Reduction of fertility in 7 days old adult of Anastrepha obliqua assessed as reduction of egg hatching at 10 mg/g treated with diet measured after 7 days oviposition; type: functional; parameters: scale not given: the % may be the effect or the level left
Anastrepha ludens [27] = assay: Reduction of fertility in 7 days old adult of Anastrepha ludens assessed as reduction of egg hatching at 10 mg/g treated with diet measured after 1 day oviposition; type: functional; parameters: scale not given: the % may be the effect or the level left
Anastrepha obliqua [28] = assay: Effect on fecundity in 7 days old adult of Anastrepha obliqua at 0.1 to 30 mg/g treated with diet after 24 hr; type: functional, organism-based
Anastrepha striata [29] = assay: Reduction of fertility in 7 days old adult of Anastrepha striata assessed as reduction of egg hatching at 30 mg/g treated with diet measured after 7 days oviposition; type: functional; parameters: scale not given: the % may be the effect or the level left
Anastrepha striata [30] = assay: Effect on fecundity in 7 days old adult male of Anastrepha striata at 30 mg/g treated with diet after 24 hr in presence of untreated adult female of Anastrepha striata; type: functional, organism-based
Anastrepha striata [31] = assay: Reduction of fertility in 7 days old adult of Anastrepha striata assessed as reduction of egg hatching at 5 mg/g treated with diet measured after 1 day oviposition; type: functional; parameters: scale not given: the % may be the effect or the level left
Anastrepha obliqua [32] = assay: Effect on fecundity in 7 days old adult female of Anastrepha obliqua at 30 mg/g treated with diet after 24 hr in presence of untreated adult male of Anastrepha obliqua; type: functional, organism-based
Anastrepha serpentina [33] = assay: Reduction of fertility in 7 days old adult of Anastrepha serpentina assessed as reduction of egg hatching at 0.1 mg/g treated with diet measured after 11 days oviposition; type: functional; parameters: scale not given: the % may be the effect or the level left
Anastrepha obliqua [34] = assay: Reduction of fertility in 7 days old adult of Anastrepha obliqua assessed as reduction of egg hatching at 1 mg/g treated with diet measured after 3 days oviposition; type: functional; parameters: scale not given: the % may be the effect or the level left
Anastrepha ludens [35] = assay: Reduction of fertility in 7 days old adult of Anastrepha ludens assessed as reduction of egg hatching at 0.1 mg/g treated with diet measured after 7 days oviposition; type: functional; parameters: scale not given: the % may be the effect or the level left
Anastrepha striata [36] = assay: Reduction of fertility in 7 days old adult of Anastrepha striata assessed as reduction of egg hatching at 10 mg/g treated with diet measured after 9 days oviposition; type: functional; parameters: scale not given: the % may be the effect or the level left
Anastrepha obliqua [37] = assay: Reduction of fertility in 7 days old adult of Anastrepha obliqua assessed as reduction of egg hatching at 30 mg/g treated with diet measured after 11 days oviposition; type: functional; parameters: scale not given: the % may be the effect or the level left
Anastrepha ludens [38] = assay: Reduction of fertility in 7 days old adult of Anastrepha ludens assessed as reduction of egg hatching at 1 mg/g treated with diet measured after 3 days oviposition; type: functional; parameters: scale not given: the % may be the effect or the level left
Anastrepha obliqua [39] = assay: Reduction of fertility in 7 days old adult of Anastrepha obliqua assessed as reduction of egg hatching at 5 mg/g treated with diet measured after 9 days oviposition; type: functional; parameters: scale not given: the % may be the effect or the level left
Anastrepha ludens [40] = assay: Reduction of fertility in 7 days old adult of Anastrepha ludens assessed as reduction of egg hatching at 5 mg/g treated with diet measured after 9 days oviposition; type: functional; parameters: scale not given: the % may be the effect or the level left
Anastrepha striata [41] = assay: Reduction of fertility in 7 days old adult of Anastrepha striata assessed as reduction of egg hatching at 30 mg/g treated with diet measured after 3 days oviposition; type: functional; parameters: scale not given: the % may be the effect or the level left

SMILES: O=C(NC(=O)c1c(F)cccc1F)Nc1cc(Cl)c(OC(F)(F)C(F)C(F)(F)F)cc1Cl (racemic) [LUFENURON]
- Activity (Anastrepha serpentina [1]): Active
- Activity (Anastrepha ludens [2]): 8%
- Activity (Anastrepha ludens [3]): 28%
- Activity (Anastrepha striata [4]): 2%
- Activity (Anastrepha ludens [5]): 3%
- Activity (Anastrepha striata [6]): 28.7%
- Activity (Anastrepha striata [7]): 4.5%
- Activity (Anastrepha obliqua [8]): 0%
- Activity (Anastrepha serpentina [9]): 88.3%
- Activity (Anastrepha serpentina [10]): 86.7%
- Activity (Anastrepha serpentina [11]): 74.6%
- Activity (Anastrepha striata [12]): 72.7%
- Activity (Anastrepha serpentina [13]): 83.3%
- Activity (Anastrepha ludens [14]): 12%
- Activity (Anastrepha ludens [15]): 20%
- Activity (Anastrepha ludens [16]): 2.7%
- Activity (Anastrepha obliqua [17]): 0%
- Activity (Anastrepha obliqua [18]): inactive
- Activity (Anastrepha striata [19]): inactive
- Activity (Anastrepha ludens [20]): 30.7%
- Activity (Anastrepha obliqua [21]): 0.7%
- Activity (Anastrepha obliqua [22]): 0%
- Activity (Anastrepha striata [23]): 2.7%
- Activity (Anastrepha ludens [24]): 20%
- Activity (Anastrepha serpentina [25]): inactive
- Activity (Anastrepha obliqua [26]): 1.3%
- Activity (Anastrepha ludens [27]): 6%
- Activity (Anastrepha obliqua [28]): inactive
- Activity (Anastrepha striata [29]): 0.7%
- Activity (Anastrepha striata [30]): inactive
- Activity (Anastrepha striata [31]): 3.3%
- Activity (Anastrepha obliqua [32]): inactive
- Activity (Anastrepha serpentina [33]): 80.3%
- Activity (Anastrepha obliqua [34]): 0%
- Activity (Anastrepha ludens [35]): 43.3%
- Activity (Anastrepha striata [36]): 6%
- Activity (Anastrepha obliqua [37]): 2%
- Activity (Anastrepha ludens [38]): 9.3%
- Activity (Anastrepha obliqua [39]): 0.7%
- Activity (Anastrepha ludens [40]): 30.7%
- Activity (Anastrepha striata [41]): 8.7%
